Data reported in patent US20230159496A1, “COMPOUNDS AND METHODS FOR MODULATING SPLICING” (REMIX THERAPEUTICS INC., priority 2020, published 2023).
Structures can show the parent of a compound that is named as a salt. Where two headings read alike, the source gives them in different places.

Tests used:
Assay type in all cases: cell-based
HTT mRNA = experiment: Splicing assay (RT-qPCR) monitoring HTT canonical junction (CJ) and alternative junction (AJ) mRNA isoforms; conditions: A673 or K562 cells, 24 h treatment, top dose 10 uM
Procedure, shortened: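 A673 or K562 cells treated 24 h at 37 °C with an 11-point 3-fold dilution (top 10 uM final, DMSO ≤0.25%). Lysates assayed by one-step RT-qPCR for HTT CJ and AJ isoforms, normalized to GAPDH, GUSB (K562) or PPIA (A673).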

HTT CJ mRNA = experiment: Gene panel canonical junction qPCR assay, HTT; conditions: decrease in CJ mRNA levels, gene panel; read-out: HTT IC50
Procedure, shortened: (§1)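 A673 or K562 cells were treated for 24 h at 37 °C with an 11-point 3-fold dilution, top dose 10 uM, DMSO ≤0.25%. Canonical junction mRNA in lysates was quantified by one-step RT-qPCR and normalized to GAPDH, GUSB or PPIA.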

Target C CJ mRNA = experiment: Gene panel canonical junction qPCR assay, Target C; conditions: decrease in CJ mRNA levels, gene panel; read-out: Target C IC50
Procedure, shortened: as §1

SMN2 CJ mRNA = experiment: Gene panel canonical junction qPCR assay, SMN2; conditions: decrease in CJ mRNA levels, gene panel; read-out: SMN2 IC50
Procedure, shortened: as §1

[1] = decrease in CJ mRNA (50% response), read-out: HTT CJ AC50
[2] = increase in AJ mRNA (50% response), read-out: HTT AJ AC50

Compound	AC50 (HTT mRNA; [1])	AC50 (HTT mRNA; [2])	IC50 (HTT CJ mRNA)	IC50 (Target C CJ mRNA)	IC50 (SMN2 CJ mRNA)
Cc1cn2nc(-c3ccc4c(c3)CCN(C3CCNC(C)(C)C3)C4=O)cc(C)c2n1 (centres unmarked) [Compound 267]	1000 to 10000 nM	100 to 1000 nM	1000 to 10000 nM	1000 to 10000 nM	< 100 nM
CN1CCN(c2ccc3c(=O)n(-c4ccc5nn(C)cc5c4)cnc3c2)CC1 [Compound 152, 3-(2-methyl-2H-indazol-5-yl)-7-(4-methylpiperazin-1-yl)quinazolin-4(3H)-one]	> 10000 nM	> 10000 nM	> 10000 nM	> 10000 nM	> 10000 nM
Cc1cn2nc(-c3ccc4c(=O)n(C5CCN(C)CC5)cnc4c3)cc2c(C)n1 [Compound 303]	1000 to 10000 nM	1000 to 10000 nM	1000 to 10000 nM	1000 to 10000 nM	100 to 1000 nM
CN(c1ccc2c(=O)n(-c3ccc4nn(C)cc4c3)cnc2c1)C1CCNCC1 [Compound 180, 7-(methyl(piperidin-4-yl)amino)-3-(2-methyl-2H-indazol-5-yl)quinazolin-4(3H)-one, hydrochloride]	> 10000 nM	> 10000 nM	> 10000 nM	1000 to 10000 nM	> 10000 nM
Cc1cn2nc(-c3ccc4c(c3)CCN(C3CCNCC3)C4=O)nc2c(C)n1 [Compound 222]	1000 to 10000 nM	1000 to 10000 nM	1000 to 10000 nM	1000 to 10000 nM	100 to 1000 nM
Cc1cn2cc(-c3ccc4c(=O)n(C5CCNCC5)ccc4c3)cc(F)c2n1 [Compound 276, 6-(8-fluoro-2-methylimidazo[1,2-a]pyridin-6-yl)-2-(piperidin-4-yl)isoquinolin-1(2H)-one]	< 100 nM	< 100 nM	< 100 nM	< 100 nM	< 100 nM
Cc1cn2cc(-c3cc(F)c4c(=O)n(C5CCNCC5)cnc4c3)cc(F)c2n1 [Compound 230, 5-fluoro-7-{8-fluoro-2-methylimidazo [1,2-a]pyridin-6-yl}-3-(piperidin-4-yl)quinazolin-4-one]	< 100 nM	< 100 nM	< 100 nM	< 100 nM	< 100 nM
Cc1cc(-c2cc(F)c3c(=O)n(C4CCNCC4)cnc3c2)cc2cn(C)nc12 [Compound 232]	< 100 nM	< 100 nM	< 100 nM	100 to 1000 nM	< 100 nM
Cc1cn2cc(-c3ccc4c(c3)CCN(C3CCNCC3)C4=O)nc2c(C)n1 [Compound 221]	> 10000 nM	> 10000 nM	> 10000 nM	> 10000 nM	100 to 1000 nM
Cc1cn2nc(-c3ccc4c(=O)n(C5CCNC6(CC6)C5)ncc4c3)cc(C)c2n1 (centres unmarked) [Compound 274]	< 100 nM	< 100 nM	< 100 nM	< 100 nM	< 100 nM
Cn1cc2ccc(-n3cnc4cc(NC5CCNCC5)ccc4c3=O)cc2n1 [Compound 204, 3-(2-methyl-2H-indazol-6-yl)-7-(piperidin-4-ylamino)quinazolin-4(3H)-one]	> 10000 nM	> 10000 nM	> 10000 nM	> 10000 nM	> 10000 nM
Cc1cn2nc(-c3ccc4c(=O)n(C5CCCNCC5)ncc4c3)cc(C)c2n1 (centres unmarked) [Compound 283, 2-(azepan-4-yl)-6-{2,8-dimethylimidazo[1,2-b]pyridazin-6-yl}phthalazin-1-one]	100 to 1000 nM	100 to 1000 nM	100 to 1000 nM	100 to 1000 nM	< 100 nM
Cc1cc(-c2ccc3c(=O)n(C4CCN(C)CC4)cnc3c2F)cc2cn(C)nc12 [Compound 235, 7-(2,7-dimethyl-2H-indazol-5-yl)-8-fluoro-3-(1-methylpiperidin-4-yl)quinazolin-4(3H)-one]	> 10000 nM	> 10000 nM	> 10000 nM	> 10000 nM	100 to 1000 nM
Cc1cn2cc(-c3ccc4c(=O)n(C5CCNCC5)cnc4c3F)cc(F)c2n1 [Compound 210, 8-fluoro-7-(8-fluoro-2-methylimidazo[1,2-a]pyridin-6-yl)-3-(piperidin-4-yl)quinazolin-4(3H)-one]	1000 to 10000 nM	1000 to 10000 nM	1000 to 10000 nM	1000 to 10000 nM	100 to 1000 nM
Cc1cn2cc(-c3ccc4nc(N5CCNC6(CC6)C5)[nH]c(=O)c4c3)cc(F)c2n1 [Compound 191, 6-(8-fluoro-2-methylimidazo[1,2-a]pyridin-6-yl)-2-(4,7-diazaspiro[2.5]octan-7-yl)quinazolin-4(3H)-one]	> 10000 nM	> 10000 nM	> 10000 nM	> 10000 nM	> 10000 nM
Cc1cn2cc(-c3ccc4c(=O)n(C5CCN(C)CC5)cnc4c3)nc2c(C)n1 [Compound 302]	1000 to 10000 nM	1000 to 10000 nM	1000 to 10000 nM	1000 to 10000 nM	100 to 1000 nM
Cc1cn2nc(-c3ccc4c(=O)n(C5CCN(C)CC5)cnc4c3F)cc(C)c2n1 [Compound 290, 7-(2,8-dimethylimidazo[1,2-b]pyridazin-6-yl)-8-fluoro-3-(1-methylpiperidin-4-yl)quinazolin-4(3H)-one]	100 to 1000 nM	100 to 1000 nM	100 to 1000 nM	100 to 1000 nM	100 to 1000 nM
Cc1cn2nc(-c3ccc4nc(NC5CCNCC5)[nH]c(=O)c4c3)cc(C)c2n1 [Compound 192, 6-(2,8-dimethylimidazo[1,2-b]pyridazin-6-yl)-2-(piperidin-4-ylamino)quinazolin-4(3H)-one]	> 10000 nM	> 10000 nM	> 10000 nM	> 10000 nM	> 10000 nM
Cc1cn2nc(-c3ccc4c(=O)n([C@H]5CCN(C)[C@H](C)C5)ncc4c3)cc(C)c2n1 [Compound 278]	< 100 nM	< 100 nM	< 100 nM	100 to 1000 nM	< 100 nM
Cc1cn2cc(-c3cc(F)c4c(=O)n(C5CCN(C)CC5)cnc4c3)cc(F)c2n1 [Compound 231, 5-fluoro-7-(8-fluoro-2-methylimidazo[1,2-a]pyridin-6-yl)-3-(1-methylpiperidin-4-yl)quinazolin-4(3H)-one]	100 to 1000 nM	100 to 1000 nM	100 to 1000 nM	1000 to 10000 nM	< 100 nM
Cc1cn2cc(-c3ccc4c(=O)n(C5CCNCC5)cnc4c3)nc2c(C)n1 [Compound 286]	1000 to 10000 nM	1000 to 10000 nM	1000 to 10000 nM	1000 to 10000 nM	100 to 1000 nM
Cc1cn2cc(-c3ccc4c(=O)n(C5CCNCC5)ncc4c3)cc(C(F)(F)F)c2n1 [Compound 262]	1000 to 10000 nM	1000 to 10000 nM	1000 to 10000 nM	1000 to 10000 nM	< 100 nM
Cc1cn2cc(-c3ccc4c(=O)n(C5CCNCC5)ncc4c3)cc(Cl)c2n1 [Compound 256]	100 to 1000 nM	100 to 1000 nM	100 to 1000 nM	> 10000 nM	< 100 nM
Cc1cn2cc(-c3ccc4c(c3)CCN(C3CCNCC3)C4=O)cc(F)c2n1 [Compound 247, 6-[8-fluoro-2-methylimidazo[1,2-a]pyridin-6-yl]-2-(piperidin-4-yl)-3,4-dihydroisoquinolin-1-one]	1000 to 10000 nM	1000 to 10000 nM	1000 to 10000 nM	1000 to 10000 nM	< 100 nM
Cc1cn2nc(-c3ccc4c(=O)n(C5CCN(C)CC5)cnc4c3)cc(C)c2n1 [Compound 176, 7-(2,8-dimethylimidazo[1,2-b]pyridazin-6-yl)-3-(1-methylpiperidin-4-yl)quinazolin-4(3H)-one]	1000 to 10000 nM	1000 to 10000 nM	1000 to 10000 nM	1000 to 10000 nM	100 to 1000 nM
